One data set concerns the target T1, GRPR (Homo sapiens, UniProt P30550).
T1 construct: endogenous in cells; host or cells: PC-3 prostate cancer cells
Description: In vitro competition binding assay, displacement of [^125I-Tyr^4]bombesin on GRPR-expressing PC-3 cells. The note with it: n = 2-3, read-out: Binding affinities Ki Mean. The protocol: PC-3 cells were seeded at 2×10^5 cells/well in 24-well poly-D-lysine plates 24-48 hours prior to the experiment. The growth medium was replaced by 400 μL of reaction medium (RPMI 1640 containing 2 mg/mL BSA, 4.8 mg/mL HEPES, 1 U/mL penicillin G and 1 μg/mL streptomycin). Cells were incubated for 30-60 min at 37° C. […] The cells were incubated with moderate agitation for 1 h at 27° C., washed twice with ice-cold PBS, harvested by trypsinization, and measured for radioactivity on the gamma counter. Data were analyzed using nonlinear regression (one binding site model for competition assay) with GraphPad Prism 8.
In vitro competition binding assays were performed according to the procedure outlined in Example 1.

Data set [1] can be described thus: Ex vivo biodistribution in PC-3 tumor-bearing mice. To be noted: male, NRG, mouse, iv, total radioactivity, 1 h post-injection, mice bearing PC-3 tumor xenografts, n = 4.
Description: (§1) All imaging and biodistribution studies were performed using male NOD.Cg-Rag1^tm1MoM II2rg^tm1WI/SzJ (NRG) mice and conducted according to the guidelines established by the Canadian Council on Animal Care and approved by Animal Ethics Committee of the University of British Columbia. For tumor inoculations, mice were anesthetized by inhalation with 2% isoflurane in oxygen and implanted subcutaneously with 5×10^6 PC-3 cells below the left shoulder. Imaging and biodistribution studies were performed only after tumors grew to 5-8 mm in diameter.
(§2) For PET/CT imaging studies, ˜3-4 MBq of the ^68Ga-labeled tracer was injected through the tail vein. Mice were allowed to recover and roam freely in the cages after injecting the tracer. At 45 min post-injection (p.i.), mice were sedated again and positioned on the scanner. First, a 10 min CT scan was conducted for localization and attenuation correction for reconstruction of PET images, before a 10 min PET image was acquired. Heating pads were used during the entire procedure to keep the mice warm. For ex vivo biodistribution studies, mice were injected with ˜1.5-3 MBq of the ^68Ga-labeled tracer. At 1 h p.i., mice were euthanized, blood was drawn from heart, and organs/tissues of interest were collected, rinsed with PBS, blotted dry, weighed, and counted using an automated gamma counter. The uptake in each organ/tissue was normalized to the injected dose and expressed as the percentage of the injected dose per gram of tissue (% ID/g).
(§3) All imaging and biodistribution studies were performed using male NOD.Cg-Rag1tm1Mom II2rgtm1WjI/SzJ (NRG) mice and conducted according to the guidelines established by the Canadian Council on Animal Care and approved by Animal Ethics Committee of the University of British Columbia. For tumor inoculations, mice were anesthetized by inhalation with 2% isoflurane in oxygen and implanted subcutaneously with 5×10^6 PC-3 cells below the left shoulder. Imaging and biodistribution studies were performed only after tumors grew to 5-8 mm in diameter.
(§4) For PET/CT imaging studies, ˜5 MBq of the ^68Ga-labeled tracer was injected through the tail vein. Mice were allowed to recover and roam freely in the cages after injecting the tracer. At 45 min post-injection (p.i.), mice were sedated again and positioned on the scanner. First, a 10 min CT scan was conducted for localization and attenuation correction for reconstruction of PET images, before a 10 min PET image was acquired. Heating pads were used during the entire procedure to keep the mice warm. For ex vivo biodistribution studies, mice were injected with ˜3 MBq of the 68Ga-labeled tracer. At 1 h p.i., mice were euthanized, blood was drawn from heart, and organs/tissues of interest were collected, rinsed with PBS, blotted dry, weighed, and counted using an automated gamma counter.
The nature of another data set: in vivo. To be noted: male, NRG, mouse, iv, total radioactivity.
The mark [2] stands for this setting: seminal, Biodistribution Seminal Mean.
[3] abbreviates: Biodistribution Large Intestine Mean.
[4] abbreviates: Biodistribution Small Intestine Mean.
Where [5] appears, read: PC-3 tumor, Biodistribution PC3 tumor Mean.

pKi: −log10 of the molar value. Numbered stars: 1 amine (or outer) side, 2 acyl side, 3 side chain; on linkers, the order of the positions; unused ones are H or OH. Square brackets hold non-standard residues; d marks the D form. Peptide text beside a SMILES is read from it. * marks the point of attachment. DOTA = O=C(O)CN1CCN(CC(=O)O)CCN(CC(=O)*)CCN(CC(=O)O)CC1; Leuψ(CH2N)ThzNH2 = CC(C)C[C@@H](CN1CSC[C@H]1C(N)=O)N*; NMeH = CN[C@@H](Cc1c[nH]cn1)C(=O)O; X1 = O=C(CN1CCC(N[*:1])CC1)[*:2]; Tle = CC(C)(C)[C@H](N)C(=O)O; Thz = O=C(O)[C@@H]1CSCN1 Some results are limits rather than exact numbers.

T1 sequence (P30550 whole entry): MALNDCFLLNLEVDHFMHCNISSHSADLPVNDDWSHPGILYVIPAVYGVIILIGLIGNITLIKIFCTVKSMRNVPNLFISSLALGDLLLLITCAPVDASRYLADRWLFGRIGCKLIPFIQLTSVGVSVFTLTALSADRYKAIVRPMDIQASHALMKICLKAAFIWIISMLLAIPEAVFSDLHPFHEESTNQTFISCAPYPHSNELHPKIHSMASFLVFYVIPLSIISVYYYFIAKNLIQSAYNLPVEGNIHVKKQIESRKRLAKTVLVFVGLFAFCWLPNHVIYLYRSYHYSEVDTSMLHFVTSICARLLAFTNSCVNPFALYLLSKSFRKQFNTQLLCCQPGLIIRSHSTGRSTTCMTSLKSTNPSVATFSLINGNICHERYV
Description for in vivo: as §1, §2, §3, §4

For `CC(C)C[C@@H](CN1CSC[C@H]1C(N)=O)NC(=O)[C@H](Cc1c[nH]cn1)NC(=O)CNC(=O)[C@@H](NC(=O)[C@H](C)NC(=O)[C@H](Cc1c[nH]c2ccccc12)NC(=O)[C@H](CCC(N)=O)NC(=O)[C@H]1Cc2c([nH]c3ccccc23)CN1C(=O)CN1CCC(NC(=O)CN2CCN(CC(=O)O)CCN(CC(=O)O)CCN(CC(=O)O)CC2)CC1)C(C)C` [LW01061, DOTA-Pip-D-Tpi-Gln-Trp-Ala-Val-Gly-His-Leu-ψ-Thz-NH2], the negative logarithm of the Ki (pKi) at GRPR is below 6.40.
Take `CC(C)C[C@H](NC(=O)[C@H](Cc1cnc[nH]1)NC(=O)CNC(=O)[C@@H](NC(=O)[C@H](C)NC(=O)[C@H](Cc1c[nH]c2ccccc12)NC(=O)[C@H](CCC(N)=O)NC(=O)[C@H](N)Cc1ccccc1)C(C)(C)C)C(=O)N1CSC[C@H]1C(N)=O` [LW01080, D-Phe-Gln-Trp-Ala-Tle-Gly-His-Leu-Thz-NH2]: the negative logarithm of the Ki (pKi) at GRPR is 8.45.
On to `CC(C)C[C@H](NC(=O)[C@H](Cc1cnc[nH]1)NC(=O)CNC(=O)[C@@H](NC(=O)[C@H](C)NC(=O)[C@H](Cc1c[nH]c2ccccc12)NC(=O)[C@H](CCC(N)=O)NC(=O)[C@H](N)Cc1ccccc1)C(C)C)C(=O)N1CSC[C@H]1C(N)=O` [LW01085], for which the negative logarithm of the Ki (pKi) on GRPR is 8.06.
As to `CC(C)C[C@H](NC(=O)[C@H](Cc1c[nH]cn1)N(C)C(=O)CNC(=O)[C@@H](NC(=O)[C@H](C)NC(=O)[C@H](Cc1c[nH]c2ccccc12)NC(=O)[C@H](CCC(N)=O)NC(=O)[C@@H](Cc1ccccc1)NC(=O)CN1CCC(NC(=O)CN2CCN(CC(=O)O)CCN(CC(=O)O)CCN(CC(=O)O)CC2)CC1)C(C)C)C(=O)N1CSC[C@H]1C(N)=O` [^68Ga-LW01107, metal not drawn], the tissue uptake at 1 h is 0.32 %ID/g in data set [1] (adrenal, Biodistribution Adrenal Mean); 0.07 %ID/g in data set [1] (muscle, Biodistribution Muscle Mean); 0.04 %ID/g in data set [1] (setting [2]); 0.3 %ID/g in “in vivo” (Biodistribution Blood Mean); 0.06 %ID/g in “in vivo” (Biodistribution Bone Mean); 0.01 %ID/g in “in vivo” (Biodistribution Brain Mean). Also, the tissue uptake at 1 h in “in vivo” (Biodistribution Fat Mean) was found to be 0.05 %ID/g; in the data set “in vivo” (Biodistribution Heart Mean), 0.11 %ID/g; in “in vivo” (Biodistribution Kidneys Mean), 1.88 %ID/g; in “in vivo” (setting [3]), 0.18 %ID/g; in “in vivo” (Biodistribution Liver Mean), 0.32 %ID/g; in the data set “in vivo” (Biodistribution Lungs Mean), 0.28 %ID/g. In addition, the tissue uptake at 1 h was 7.05 %ID/g in the data set “in vivo” (Biodistribution PC3 tumor Mean); 0.39 %ID/g in “in vivo” (Biodistribution Pancreas Mean); 0.31 %ID/g in the data set “in vivo” (setting [4]); 0.13 %ID/g in “in vivo” (Biodistribution Spleen Mean); 0.07 %ID/g in the data set “in vivo” (Biodistribution Stomach Mean); 0.1 %ID/g in “in vivo” (Biodistribution Testes Mean).
In the case of `CC(C)C[C@H](NC(=O)[C@H](Cc1c[nH]cn1)NC(=O)CNC(=O)[C@@H](NC(=O)[C@H](C)NC(=O)[C@H](Cc1c[nH]c2ccccc12)NC(=O)[C@H](CCC(N)=O)NC(=O)[C@@H](Cc1ccccc1)NC(=O)CN1CCC(NC(=O)CN2CCN(CC(=O)O)CCN(CC(=O)O)CCN(CC(=O)O)CC2)CC1)C(C)(C)C)C(=O)N1CSC[C@H]1C(N)=O` [^68Ga-LW01108, metal not drawn], the tissue uptake at 1 h in data set [1] (setting [2]) was 0.11 %ID/g; in the data set “in vivo” (Biodistribution Adrenal Mean) it was 1.51 %ID/g; in “in vivo” (Biodistribution Blood Mean), 0.59 %ID/g; in “in vivo” (Biodistribution Bone Mean), 0.15 %ID/g; in the data set “in vivo” (Biodistribution Brain Mean), 0.02 %ID/g; in “in vivo” (Biodistribution Fat Mean), 0.06 %ID/g. The tissue uptake at 1 h in “in vivo” (Biodistribution Heart Mean) is 0.18 %ID/g; in the data set “in vivo” (Biodistribution Kidneys Mean), 2.47 %ID/g; in “in vivo” (setting [3]), 1.31 %ID/g; in “in vivo” (Biodistribution Liver Mean), 0.35 %ID/g; in the data set “in vivo” (Biodistribution Lungs Mean) it was 0.49 %ID/g; in the data set “in vivo” (Biodistribution Muscle Mean), 0.17 %ID/g. In addition, the tissue uptake at 1 h in the data set “in vivo” (Biodistribution PC3 tumor Mean) worked out at 5.9 %ID/g; in “in vivo” (Biodistribution Pancreas Mean), 9.32 %ID/g; in “in vivo” (setting [4]), 2.29 %ID/g; in the data set “in vivo” (Biodistribution Spleen Mean), 0.4 %ID/g; in the data set “in vivo” (Biodistribution Stomach Mean), 0.89 %ID/g; in the data set “in vivo” (Biodistribution Testes Mean), 0.16 %ID/g.
On to `CC(C)C[C@H](NC(=O)[C@H](Cc1cnc[nH]1)N(C)C(=O)CNC(=O)[C@@H](NC(=O)[C@H](C)NC(=O)[C@H](Cc1c[nH]c2ccccc12)NC(=O)[C@H](CCC(N)=O)NC(=O)[C@@H](Cc1ccccc1)NC(=O)CN1CCC(NC(=O)CN2CCN(CC(=O)O)CCN(CC(=O)O)CCN(CC(=O)O)CC2)CC1)C(C)(C)C)C(=O)N1CSC[C@H]1C(N)=O` [^68Ga-LW01110, metal not drawn], for which the tissue uptake at 1 h in data set [1] (setting [5]) was 16.6 %ID/g; in data set [1] (setting [2]), 0.1 %ID/g; in “in vivo” (Biodistribution Adrenal Mean) it was 1.64 %ID/g; in the data set “in vivo” (Biodistribution Blood Mean) it was 0.69 %ID/g; in the data set “in vivo” (Biodistribution Bone Mean), 0.12 %ID/g; in the data set “in vivo” (Biodistribution Brain Mean), 0.03 %ID/g. The tissue uptake at 1 h in “in vivo” (Biodistribution Fat Mean) amounted to 0.09 %ID/g; in “in vivo” (Biodistribution Heart Mean) it was 0.23 %ID/g; in the data set “in vivo” (Biodistribution Kidneys Mean) it was 3.26 %ID/g; in “in vivo” (setting [3]) it was 1.27 %ID/g; in the data set “in vivo” (Biodistribution Liver Mean), 0.41 %ID/g; in the data set “in vivo” (Biodistribution Lungs Mean), 0.59 %ID/g. The tissue uptake at 1 h in the data set “in vivo” (Biodistribution Muscle Mean) is 0.14 %ID/g; in “in vivo” (Biodistribution Pancreas Mean), 8.99 %ID/g; in the data set “in vivo” (setting [4]), 2.11 %ID/g; in “in vivo” (Biodistribution Spleen Mean) it was 0.29 %ID/g; in the data set “in vivo” (Biodistribution Stomach Mean), 0.94 %ID/g; in the data set “in vivo” (Biodistribution Testes Mean), 0.16 %ID/g.
Take `CC(C)C[C@H](NC(=O)[C@H](Cc1cnc[nH]1)N(C)C(=O)CNC(=O)[C@@H](NC(=O)[C@H](C)NC(=O)[C@H](Cc1c[nH]c2ccccc12)NC(=O)[C@H](Cc1c[nH]cn1)NC(=O)[C@@H](Cc1ccccc1)NC(=O)CN1CCC(NC(=O)CN2CCN(CC(=O)O)CCN(CC(=O)O)CCN(CC(=O)O)CC2)CC1)C(C)(C)C)C(=O)N1CSC[C@H]1C(N)=O` [^68Ga-LW01142, metal not drawn] ({DOTA}-[X1][dF]HWA[Tle]G[NMeH]L[Thz]-NH2): the tissue uptake at 1 h in data set [1] (setting [5]) was 11.4 %ID/g; in data set [1] (setting [2]) it was 0.33 %ID/g; in “in vivo” (Biodistribution Adrenal Mean) it was 2.07 %ID/g; in the data set “in vivo” (Biodistribution Blood Mean), 6.88 %ID/g; in “in vivo” (Biodistribution Bone Mean) it was 0.47 %ID/g; in the data set “in vivo” (Biodistribution Brain Mean), 0.15 %ID/g. In addition, the tissue uptake at 1 h worked out at 0.32 %ID/g in the data set “in vivo” (Biodistribution Fat Mean); 1.62 %ID/g in “in vivo” (Biodistribution Heart Mean); 6.36 %ID/g in the data set “in vivo” (Biodistribution Kidneys Mean); 1.07 %ID/g in the data set “in vivo” (setting [3]); 2.88 %ID/g in the data set “in vivo” (Biodistribution Liver Mean); 4.59 %ID/g in the data set “in vivo” (Biodistribution Lungs Mean). Moreover, the tissue uptake at 1 h amounted to 0.52 %ID/g in “in vivo” (Biodistribution Muscle Mean); 4.4 %ID/g in “in vivo” (Biodistribution Pancreas Mean); 1.7 %ID/g in “in vivo” (setting [4]); 0.88 %ID/g in “in vivo” (Biodistribution Spleen Mean); 0.98 %ID/g in “in vivo” (Biodistribution Stomach Mean); 1.28 %ID/g in the data set “in vivo” (Biodistribution Testes Mean).
Take `CC(C)C[C@@H](CN1CSC[C@H]1C(N)=O)NC(=O)[C@H](Cc1c[nH]cn1)NC(=O)CNC(=O)[C@@H](NC(=O)[C@H](C)NC(=O)[C@H](Cc1c[nH]c2ccccc12)NC(=O)[C@H](CCC(N)=O)NC(=O)[C@@H](Cc1ccccc1)NC(=O)CN1CCC(NC(=O)CN2CCN(CC(=O)O)CCN(CC(=O)O)CCN(CC(=O)O)CC2)CC1)C(C)(C)C` [^68Ga-LW01158, metal not drawn] ({DOTA}-[X1][dF]QWA[Tle]GH-{Leuψ(CH2N)ThzNH2}): the tissue uptake at 1 h came to 11.2 %ID/g in data set [1] (setting [5]); 12 %ID/g in data set [1] (pancreas, Biodistribution Pancreas Mean); 0.15 %ID/g in data set [1] (setting [2]); 1.37 %ID/g in the data set “in vivo” (Biodistribution Adrenal Mean); 1.14 %ID/g in “in vivo” (Biodistribution Blood Mean); 0.13 %ID/g in “in vivo” (Biodistribution Bone Mean). Also, the tissue uptake at 1 h in “in vivo” (Biodistribution Brain Mean) was 0.03 %ID/g; in “in vivo” (Biodistribution Fat Mean) it was 0.07 %ID/g; in the data set “in vivo” (Biodistribution Heart Mean) it was 0.34 %ID/g; in “in vivo” (Biodistribution Kidneys Mean) it was 2.98 %ID/g; in the data set “in vivo” (setting [3]), 1.41 %ID/g; in the data set “in vivo” (Biodistribution Liver Mean) it was 4.33 %ID/g. In addition, the tissue uptake at 1 h in “in vivo” (Biodistribution Lungs Mean) came out at 1.19 %ID/g; in “in vivo” (Biodistribution Muscle Mean), 0.2 %ID/g; in “in vivo” (setting [4]), 2.46 %ID/g; in “in vivo” (Biodistribution Spleen Mean), 0.6 %ID/g; in the data set “in vivo” (Biodistribution Stomach Mean), 1.3 %ID/g; in “in vivo” (Biodistribution Testes Mean), 0.24 %ID/g.

One may read the pKi as the negative decadic logarithm of the Ki, by convention in mol/L. As a reminder, the tissue uptake is the share of the injected amount in each gram of the tissue.

The record behind these values is patent US12246076B2, “Radiolabeled compounds for in vivo imaging of gastrin-releasing peptide receptor (GRPR) and treatment of GRPR-related disorders” (PROVINCIAL HEALTH SERVICES AUTHORITY, priority 2022, dated 2025).
